Test results from publication PMC10991509, “A phase I study of ATR inhibitor gartisertib (M4344) as a single agent and in combination with carboplatin in patients with advanced solid tumours” (British Journal of Cancer, 2024).

How the values were obtained:
[1] = system: patients with advanced solid tumours; experiment: Phase I safety and tolerability (TEAEs, DLTs, MTD/RP2D); assay type: in vivo
Excerpt: This phase I, multicenter, multicohort, open-label, first-in-human study (NCT02278250) assessed the safety, tolerability, pharmacokinetics (PK) and antitumour activity of orally administered gartisertib alone or in combination with intravenous carboplatin in patients with advanced solid tumours for whom no standard therapy was available.
The primary objectives of cohorts A and A2 were to evaluate safety and tolerability and determine the maximum tolerated dose (MTD) and/or recommended phase II dose (RP2D) of escalating doses of gartisertib monotherapy. In cohort B1, the primary objective was to determine the safety and tolerability as well as the MTD and/or RP2D of escalating doses of gartisertib in combination with carboplatin. The primary endpoints for these three study cohorts were safety parameters (AEs, clinical laboratory values, vital signs, and electrocardiogram [ECG] assessment) as well as the MTD and/or RP2D. The Supplementary Materials provide further details regarding the safety analysis, including determination of MTD, as well as the definitions of dose-limiting toxicities (DLTs; Supplementary Table S1). Please note that in this study increased blood bilirubin was defined as a laboratory finding whereas hyperbilirubinemia was a clinical diagnosis based on clinical symptoms.
Gartisertib safety was determined via reporting, recording, and analysis of Baseline Medical Conditions, AEs, physical examination data including vital signs, electrocardiograms and laboratory tests. Medical history and physical examination data were collected during the study. Any potential AE was reported and comprehensively evaluated throughout the study. AE severity was assessed according to the National Cancer Institute – Common Terminology Criteria for Adverse Events (NCI–CTCAE) version 4.0 (cohorts A and B1) or 5.0 (cohorts A2 and C). Any clinical AE with a grade of 4 or 5 was considered to be a serious AE (SAE). A laboratory AE of grade 4 was considered serious if it met certain SAE criteria. […] Important medical events that may not result in death, be life-threatening, or require hospitalization were considered to be SAEs when, based upon appropriate medical judgment, they may jeopardize the patient or may require medical or surgical intervention to prevent one of the outcomes listed above.
Patients were monitored throughout treatment cycles for DLTs. DLTs were defined using the NCI CTCAE (cohorts A and B1: version 4.0; cohort A2: version 5.0) and were defined as being related or possibly related to treatment.
Cohorts A, A2, and B1: With respect to determination of the MTD, the next dose level to be investigated was decided at a Dose Escalation Meeting and was based on the available safety data from the previous cohort. The MTD of gartisertib was primarily determined by DLTs that occurred up to and including the end of the DLT period. Please see Table S1 for definitions of DLTs. In cohorts A and B1, the gartisertib MTD was determined according to the NCI-CTCAE version 4.0 and in cohorts A2 and […], the gartisertib MTD was defined according to the NCI-CTCAE version 5.0. If ≥2 out of up to six participants at the same dose level have a DLT, the gartisertib MTD was determined as the dose level below or at an intermediate dose level. The exact dose was determined following a discussion regarding all the relevant toxicity, including DLTs that occur in prior cohorts beyond the end of the DLT period. An RP2D was determined for each applicable cohort of the study; however, it may not be higher than the MTD.

[2] = system: variant allele frequency of somatic alterations in ctDNA; experiment: Molecular response: variant allele frequency in ctDNA; assay type: in vivo, human; settings: for patients with reduced variant allele frequency of the selected biomarkers: cohort C, 250 mg QD
Excerpt: Exploratory objectives were to assess ATR inhibition and DNA damage by measuring phosphorylation of the Ser-139 residue of the histone variant H2AX (ɣ-H2AX) post-treatment in peripheral blood mononuclear cells (cohorts A2 and C), describe the mutational landscape and its relationship to BOR in patients with selected biomarkers (cohort C) and to determine changes in allele frequencies in mutations of interest and their association with clinical benefit (molecular response; cohorts A2 and C). Further details on the definitions of LOF mutations and methods of biomarker collection are described in the Supplementary Materials.
Use of ATRX/DAXX mutations as proxies for ALT-positive tumors enabled use of a single next-generation sequencing test for all biomarkers in this study. Loss of function mutations were defined as loss of the gene locus, a mutation defined as pathogenic in the ClinVar database or a mutation in one of the following categories: splice_acceptor_variant, splice_donor_variant, stop_gained, frameshift_variant, stop_lost or start_lost. Archival formalin-fixed paraffin-embedded tumor biopsies and serial blood samples collected in two 10 mL Streck tubes (Streck) were analyzed for the presence of genetic alterations in tumor DNA and circulating tumor DNA (ctDNA) with the FoundationOne® CDx NGS assay (Foundation Medicine, Cambridge, Massachusetts, US, FoundationOne®CDx Technical Information. https://www.accessdata.fda.gov/cdrh_docs/pdf17/P170019S006C.pdf) and Guardant Health OMNI assay (Guardant, Palo Alto, CA, US. Technical Information https://www.accessdata.fda.gov/cdrh_docs/pdf20/P200010C.pdf), respectively.
Molecular responses were measured in ctDNA as best-on-treatment change in variant allele frequency of somatic alterations with baseline value ≥0.3%.

Nc1nn2cc(F)cnc2c1C(=O)Nc1cncc(F)c1N1CCC(C(=O)N2CCN(C3COC3)CC2)CC1 [gartisertib, Gartisertib]
TEAE Constipation, Grade 3/4 ([1]; human, in vivo): 0 (0.0) n (%)
TEAE Decreased appetite, Grade 3/4 ([1]; human, in vivo): 0 (0.0) n (%)
TEAE Diarrhoea, Grade 3/4 ([1]; human, in vivo): 0 (0.0) n (%)
TEAE Disease progression, Grade 3/4 ([1]; human, in vivo): 0 (0.0) n (%)
TEAE Disease progression, any grade ([1]; human, in vivo): 0 (0.0) n (%)
TEAE Dyspnoea, Grade 3/4 ([1]; human, in vivo): 0 (0.0) n (%)
TEAE Headache, Grade 3/4 ([1]; human, in vivo): 0 (0.0) n (%)
TEAE Hypokalaemia, Grade 3/4 ([1]; human, in vivo): 0 (0.0) n (%)
TEAE Hypokalaemia, any grade ([1]; human, in vivo): 0 (0.0) n (%)
TEAE Hypomagnesaemia, Grade 3/4 ([1]; human, in vivo): 0 (0.0) n (%)
TEAE Hypomagnesaemia, any grade ([1]; human, in vivo): 0 (0.0) n (%)
TEAE Jaundice, Grade 3/4 ([1]; human, in vivo): 0 (0.0) n (%)
TEAE Jaundice, any grade ([1]; human, in vivo): 0 (0.0) n (%)
TEAE Neutropenia, Grade 3/4 ([1]; human, in vivo): 0 (0.0) n (%)
TEAE Peripheral oedema, Grade 3/4 ([1]; human, in vivo): 0 (0.0) n (%)
TEAE Peripheral oedema, any grade ([1]; human, in vivo): 0 (0.0) n (%)
TEAE Thrombocytopenia, Grade 3/4 ([1]; human, in vivo): 0 (0.0) n (%)
TEAE Thrombocytopenia, any grade ([1]; human, in vivo): 0 (0.0) n (%)
TEAE anaemia ([1]; human, in vivo): 61.5%
TEAE fatigue ([1]; human, in vivo): 47.6%
TEAE increased blood bilirubin ([1]; human, in vivo): 61.5%
TEAE nausea ([1]; human, in vivo): 66.7%
abdominal pain leading to gartisertib discontinuation ([1]; human, in vivo): 7.7%
hepatic failure leading to gartisertib discontinuation ([1]; human, in vivo): 7.7%
increased ALT leading to gartisertib discontinuation ([1]; human, in vivo): 7.7%
increased blood bilirubin leading to gartisertib discontinuation ([1]; human, in vivo): 11.9%
nausea leading to gartisertib discontinuation ([1]; human, in vivo): 7.1%
patients experiencing a gartisertib-related TEAE ([1]; human, in vivo): ≥ 92.3%
patients who experienced at least one serious TEAE ([1]; human, in vivo): ≥ 50%
patients with grade 3 or 4 changes in laboratory parameters ([1]; human, in vivo): ≤ 20%
recommended phase II dose (RP2D) ([1]; human, in vivo): 250 mg QD
serious TEAE related to gartisertib ([1]; human, in vivo): 19.0-37.5%
DLTs at QD doses subsequently investigated ([1]; in vivo): no additional DLTs observed
changes in ECG parameters ([1]; in vivo): no clinically relevant changes
changes in vital signs ([1]; in vivo): no clinically relevant changes
gartisertib dose reduction due to a treatment-related TEAE ([1]; in vivo): eight
patients with ≥1 DLT ([1]; in vivo): five
tolerability of gartisertib 1200 mg twice weekly ([1]; in vivo): not tolerated
deaths considered related to gartisertib or carboplatin ([1]; six deaths reported across all cohorts): none
patients with TP53-reduced variant allele frequency ([2]; cohort A2, 100 mg BID): 0/2
patients with TP53-reduced variant allele frequency ([2]; cohort A2, 150 mg QD): 1/2
patients with TP53-reduced variant allele frequency ([2]; cohort A2, 250 mg QD (RP2D)): all six
patients with TP53-reduced variant allele frequency ([2]; cohort A2, 350 mg QD): 0/4
patients with TP53-reduced variant allele frequency ([2]; cohort A2, patients achieving SD as best response): 4/5
patients with TP53-reduced variant allele frequency ([2]; cohort A2, patients with PD): 2/6
patients with reduced variant allele frequency of the selected biomarkers ([2]; SD as best response): all four
patients with reduced variant allele frequency of the selected biomarkers ([2]; patients with PD): 2/5
